Assay results: US20090131354A1, “miR-126 REGULATED GENES AND PATHWAYS AS TARGETS FOR THERAPEUTIC INTERVENTION” (priority 2007, published 2009)

Tests used:
[1] = tested on: lung cancer cells A549, H1299, H522, H838, Calu-3, HCC827, HCC2935, H520, H1650, H460, H226; test: Alamar Blue proliferation assay, all lung cancer cell lines tested; type: cell-based, human; settings: 30 nM
Excerpt: The inventors assessed the therapeutic effect of hsa-miR-126 for lung cancer by using 11 individual lung cancer cell lines. To measure cellular proliferation of lung cancer cells, the following non-small cell lung cancer (NSCLC) cells were used: cells derived from lung adenocarcinoma (A549, H1299, H522, H838, Calu-3, HCC827, HCC2935), cells derived from lung squamous cell carcinoma (H520, H226), cells derived from lung bronchioalveolar carcinoma (H1650), and cells derived from lung large cell carcinoma (H460). Synthetic hsa-miR-126 (Pre-miR™-hsa-miR-126, Ambion cat. no. AM17100) or negative control (NC) miRNA (Pre-miR™ microRNA Precursor Molecule-Negative Control #2; Ambion cat. no. AM17111) was delivered via lipid-based transfection into A549, H1299, H522, H838, Calu-3, HCC827, HCC2935, H520, H1650, and H460 cells, and via electroporation into H226 cells.
Lipid-based reverse transfections were carried out in triplicate according to a published protocol (Ovcharenko et al., 2005) and the following parameters: Cells (5,000-12,000 per 96 well), 0.1-0.2 μl Lipofectamine™ 2000 (cat. no. 11668-019, Invitrogen Corp., Carlsbad, Calif., USA) in 20 μl OptiMEM (Invitrogen), 30 nM final concentration of miRNA in 100 μl. […]

[2] = tested on: human PPC-1 prostate cancer xenograft; test: PPC-1 prostate cancer xenograft; type: in vivo, NOD/SCID mice; settings: PPC-1 xenograft
Description: Therefore, hsa-miR-126 is a likely to interfere with prostate tumor growth in the animal. To explore this possibility, the therapeutic potential of synthetic hsa-miR-126 miRNA was evaluated in the animal using the PPC-1 human prostate cancer xenograft. As described in Example 8, 5×10^6 PPC-1 cells per animal were electroporated with 1.6 μM synthetic hsa-miR-126 or negative control miRNA (Pre-miR™-hsa-miR-126, Ambion cat. no. AM17100; NC, Pre-miR™ microRNA Precursor Molecule-Negative Control #2, Ambion cat. no. AM17111), mixed with BD Matrigel™, (BD Biosciences; San Jose, Calif., USA; cat. no. 356237) in a 1:1 ratio and implanted subcutaneously into the lower back of NOD/SCID mice (Charles River Laboratories, Inc.; Wilmington, Mass., USA). A group of 7 mice was injected with hsa-miR-126 treated PPC-1 cells, and a group of 7 animals was injected with PPC-1 cells treated with negative control miRNA. To maintain steady levels of miRNA, 6.25 μg of each hsa-miR-126 or negative control miRNA conjugated with the lipid-based siPORT™ amine delivery agent (Ambion, Austin, Tex.; cat. no. AM4502) were repeatedly administered on days 7, 13 and 20 via intra-tumoral injections. Given an average mouse weight of 20 g, this dose equals 0.3125 mg/kg. Tumor growth was monitored by taking caliper measurements every 1-2 days for 22 days. Tumor volumes were calculated using the formula, Volume=length×width×width/2, in which the length is greater than the width, and plotted over time (FIG. 13). Standard deviations and data points with p values <0.01, indicating statistical significance, are shown in graph.

“hsa-miR-126 (UCGUACCGUGAGUAAUAAUGC; synthetic pre-miR form, further chemistry not given here) [Synthetic hsa-miR-126 (Pre-miR™-hsa-miR-126, Ambion cat. no. AM17100)]” was tested, and the “average inhibition of cellular proliferation” value ([1]; average of 11 lung cancer cell lines) was 25.33%, the “growth-inhibitory activity compared with etoposide” value ([1]; lung cancer cell lines) was “comparable to that of etoposide at concentrations >10 μM” and the “average volume of tumors” value ([2]; day 22, 6.25 μg intratumoral days 7, 13, 20) was 157 mm^3. The “tumor volumes after treatment” value ([2]; in response to treatments on days 7 and 13) was “approximately 130 mm^3” and the tumor growth ([2]; repeated dosing) was “blocked tumor growth”.
